Assay results published in patent US6989375B2, “Enhanced expression of transgenes” (priority 1996, dated 2006).

Legend:
[1] = system: H1299 cells; test: β-gal expression by X-gal staining after Ad/CMV/β-gal infection of agent-treated cells; type: cell-based, human
Description: Gene Delivery Protocol: In vitro gene delivery was performed by incubating cells in six-well plates (Falcon Plastics, Lincoln Park, N.J.) for two hours with Adv/CMV/β-gal in appropriate medium supplemented with 2% FCS. The multiplicity of infection (MOI: number of viral particles per target cell) was based on cell counts of untreated wells. Fresh, complete medium with the appropriate concentration of FCS was then added to the wells at the end of the infection period and cells were then incubated for 20 hours at 37° C., 5% CO2. After washing the cells with ice cold PBS, the cells were fixed with ice-cold 1.25% glutaraldehyde and stained with X-gal (5-bromo-4-chloro-3-indolyl-β-d-galactoside; Gibco BRL) as previously described (MacGregor et al., 1987). The transduction efficiency by Adv/CMV/β-gal was determined by the percentage of positive stained cells (blue) for β-galactosidase activity (1000 cells counted per well).
Time Course and Dose Response: To determine the time course of enhancement, H1299 and H460 cells were seeded in 6-well plates (2×10^5 cells/2 mls/well). After an overnight incubation period (37° C., 5% CO2), the initial medium was replaced with freshly prepared media (2 ml) containing 0.062 μg/ml CDDP (Sigma Chemicals, St. Louis, Mo.) (CDDP was prepared fresh by dissolving in distilled water) and the cells were then incubated for 24 hours at 37° C., with 5% CO2. CDDP-treated cells were then washed twice with PBS and subsequently infected with Ad/CMV/β-gal (MOI=1 for H1299 and MOI=5 for H460) on days 0, 1, 2, 3, 4, 5 or 6 following CDDP removal, to determine the time point at which maximal enhancement of expression was occurring. To establish the dose of CDDP needed to produce maximum enhancement, the cells were treated with different concentrations of CDDP (serial, 1:4 dilutions, ranging from 4 μg/ml to 0.0002 μg/ml, 5 ml per 60 mm dish) for 24 hours and subsequently incubated with Ad/CMV/β-gal 48 hours after removal of CDDP. To study if exposure of malignant cells to different classes of antineoplastic agents would lead to a similar elevation of gene expression, H1299 cells were treated with vincristine (Eli Lilly and Co, Indianapolis, Ind.), methotrexate (Lederle Pharmaceuticals, Pearl River, N.Y.), 5-fluorouracil (SoloPak Laboratories, Elk Grove Village, Ill.), epotoside (Bristol Laboratories, Princeton, N.J.) and transplatin (the isomer of CDDP that has no anticancer activity, Sigma Chemical, St. Louis, Mo.) in the similar fashion as CDDP treatment and then infected with Ad/CMV/β-gal 48 hours after removal of drug-containing media. H1299 cells were treated with 2, 4, 8, or 16 Grey (Gy) of ionizing irradiation and then similarly infected 72 hours after irradiation. Untreated cells that were similarly infected, served as controls.

[2] = system: H460 cells; test: Cell growth after 24-hour incubation with CDDP; type: cell-based, human
[3] = system: subcutaneous H1299 tumors; test: In vivo CDDP-induced enhancement of β-gal gene expression in subcutaneous tumors; design: species or system nude mice
Description: Subcutaneous (SC) tumor nodules were created by injecting 1×10^7 H1299 cells suspended in 100 μl of PBS into the dorsal flank SC tissue of nude mice (nu/nu, Charles River, Wilmington, Mass.) that had received 350 Rads of total body irradiation. Tumors, approximately 250 mm^3 in size, consistently formed within 3 to 4 weeks of tumor cell implantation. Intratumoral injections of Ad/CMV/β-gal (5×10^8 viral particles) were done at 0, 2, 4, and 6 days following an intraperitoneal injection of CDDP (5 μg/g body weight in 100 μl of PBS) or PBS only (n=4 per groups). The tumors were excised 48 hours after adenovirus injection, washed in cold PBS, embedded in tissue freezing medium (Fisher Scientific, Houston, Tex.) and snap-frozen by immersion in 2-methylbutane which was chilled over liquid nitrogen. Serial frozen sections (8μ, thick) of the tumor mass obtained at 2-mm intervals were fixed and stained with X-gal as previously described (Ponder et al., 1991) and then counterstained with nuclear fast red (PolyScientific, Bay Shore, N.Y.). Quantitative assessment of β-gal gene expression (blue cells) was determined by digital image analysis (Samba 4000, Immuno Software, Version 3.0; Image Products International, Inc., Chantilly, Va.) for each tumor section. In vivo β-gal gene transduction of tumor masses was calculated as the mean of the percentage of blue cells per surface area of representative sections. Tumor-bearing animals receiving intraperitoneal injection of PBS and subsequent intratumoral injection of Ad/CMV/β-gal at identical time points, served as controls. The magnitude of enhancement was calculated by dividing values from CDDP and Ad/CMV/β-gal treated tumors by values from Ad/CMV/β-gal control treated tumors.

[4] = system: H1299 cells; test: In situ TUNEL assay for apoptosis; type: cell-based, human; conditions: CDDP = prior CDDP treatment, Ad/CMV/p53 = not exposed to CDDP
Description: CDDP-treated or control H1299 cells were fixed in 50% acetone/ethanol for 20 minutes at −20° C. 12 hrs and 24 hrs after transfection with Adv/CMV/p53 (MOI=5). In situ TdT (terminal deoxynucleotidyl transferase)-mediated dUTP-biotin nick end-labeling (TUNEL) assay was performed according to the procedure described elsewhere (Gavrieli et al., 1992). H1299 cells used as positive controls were treated with DNAse I (Gibco BRL, Gaithersburg, Md.), for 1 hr at 37° C. (50 μg/ml in 10 mM Tris-HCI pH=7.5; 140 mM sodium cacodylate, 4 mM MgCl2, 10 mM dithiothreitol).

[5] = system: primary human foreskin fibroblasts; conditions: 16 to 20 hours exposure to high concentrations, followed immediately by transduction; cited from earlier work

Structure (SMILES): N.N.[Cl][Pt][Cl] [CDDP, cis-dichlorodimminocisplatin]
- CDDP concentration at which maximal enhancement of β-gal gene expression occurred ([1]; 24 h exposure, infected 48 hours after CDDP removal): 0.062 µg/mL
- Time of gene transfer after drug treatment for maximal enhancement ([1]; CDDP 0.062 μg/ml): about 48 hours
- Enhancement of β-gal gene expression ([1]; CDDP at 0.0039 and 1 μg/ml, infected 48 hours after CDDP removal): also an enhancement
- Enhancement of β-gal expression (FIG. 3) ([1]; drugs at 0.062 μg/ml or irradiated with 8 Greys, stained 24 hrs after infection): Enhancement of β-gal expression was observed
- Magnitude of maximal enhancement of transgene expression (FIG. 4B) ([1]; gene transfer 48 hours after exposure to 0.062 μg/ml of CDDP): 2.7 fold
- Cell growth, initial response ([2]; CDDP at 1 and 4 μg/ml for 24 hours, cells viable by trypan blue exclusion): significant depression of growth to complete inhibition of proliferation
- Cell growth compared to control cell populations ([2]; CDDP concentrations lower than 0.25 μg/ml): remained unchanged
- Percentage of positively stained cells in tumors ([3]; Ad/CMV/β-gal injected 2 days after CDDP 5 μg/g ip (CDDP) or PBS (Ad/CMV/β-gal control)): 46.0±4.3%
- Percentage of positively stained cells in tumors ([3]; Ad/CMV/β-gal injected 4 days after CDDP 5 μg/g ip (CDDP) or PBS (Ad/CMV/β-gal control)): 70.2±11%
- Percentage of positively stained cells in tumors ([3]; Ad/CMV/β-gal injected 6 days after CDDP 5 μg/g ip (CDDP) or PBS (Ad/CMV/β-gal control)): 23.4±5%
- Change in β-gal gene expression ([3]; CDDP 5 μg/g ip and Ad/CMV/β-gal concurrently administered (day 0)): no change
- Fold increase of positively stained cells over respective control ([3]; gene transfer 2 days after CDDP administration): 1.6 fold
- Fold increase of positively stained cells over respective control ([3]; gene transfer 4 days after CDDP administration): 2.8 fold
- Apoptosis (TUNEL-positive cells) ([4]; 12 hrs after Ad/CMV/p53 transfection (MOI=5)): much higher frequency than in untreated cells
- Apoptosis (TUNEL-positive cells) ([4]; 24 hrs after Ad/CMV/p53 transfection (MOI=5)): almost all CDDP-treated cells stained positive for DNA fragmentation
- Susceptibility to AAV transduction [5]: more susceptible to transduction
